Key:
Test in all cases: Test E greenhouse herbicide test, pre- and postemergence
Type in all cases: in vivo
[1] = test system: velvetleaf (Abutilon theophrasti); conditions: Preemergence
Method in brief: (§1)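 Compounds in surfactant-containing solvent are applied to soil right after sowing (silt loam) and, in parallel, to 1- to 4-leaf plants in a peat-based medium. Weed control is scored visually on a 0 (none) to 100 (complete) scale at 14 to 21 d.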

[2] = test system: crabgrass, large (large crabgrass, Digitaria sanguinalis); conditions: Preemergence
Method in brief: as §1

[3] = test system: panicum, fall (fall panicum, Panicum dichotomiflorum)
Method in brief: as §1

[4] = test system: barnyardgrass (Echinochloa crus-galli)
Method in brief: as §1

[5] = test system: field bindweed (Convolvulus arvensis)
Method in brief: as §1

[6] = test system: beggarticks (hairy beggarticks, Bidens pilosa)
Method in brief: as §1

[7] = test system: nightshade (eastern black nightshade, Solanum ptycanthum); conditions: Preemergence
Method in brief: as §1

[8] = test system: johnsongrass (Sorghum halepense); conditions: Preemergence
Method in brief: as §1

[9] = test system: goosegrass (Eleusine indica); conditions: Preemergence
Method in brief: as §1

[10] = test system: nutsedge, yellow (yellow nutsedge, Cyperus esculentus); conditions: Preemergence
Method in brief: as §1

[11] = test system: surinam grass (Brachiaria decumbens); conditions: Preemergence
Method in brief: as §1

[12] = test system: momingglory (Ipomoea coccinea); conditions: Preemergence
Method in brief: as §1

kochia (Kochia scoparia) = test system: kochia (Kochia scoparia)
Method in brief: as §1

[13] = test system: ragweed (common ragweed, Ambrosia elatior)
Method in brief: as §1

[14] = test system: sandbur (southem sandbur, Cenchrus echinatus)
Method in brief: as §1

[15] = test system: arrowleaf sida (Sida rhombifolia)
Method in brief: as §1

[16] = test system: foxtail, giant (giant foxtail, Setaria faberii); conditions: Preemergence
Method in brief: as §1

[17] = 62 g ai/ha, scale 0 to 100 (0 no effect, 100 complete control)
[18] = 125 g ai/ha, scale 0 to 100 (0 no effect, 100 complete control)
[19] = 31 g ai/ha, scale 0 to 100, 0 no effect, 100 complete control
[20] = 250 g ai/ha, visual, scale 0 no effect to 100 complete control
[21] = 62 g ai/ha, Postemergence, scale 0 to 100 (0 no effect, 100 complete control)
[22] = 62 g ai/ha, Preemergence, scale 0 to 100 (0 no effect, 100 complete control)
[23] = 125 g ai/ha, Postemergence, scale 0 to 100 (0 no effect, 100 complete control)
[24] = 125 g ai/ha, Preemergence, scale 0 to 100 (0 no effect, 100 complete control)
[25] = 250 g ai/ha, Postemergence, scale 0 to 100 (0 no effect, 100 complete control)
[26] = Postemergence, 31 g ai/ha, visual, scale 0 no effect to 100 complete control
[27] = Preemergence, 31 g ai/ha, scale 0 to 100, 0 no effect, 100 complete control
[28] = Preemergence, 250 g ai/ha, visual, scale 0 no effect to 100 complete control

Cc1ccc2sc(Br)c(-c3c(O)c(C)nn(C)c3=O)c2c1 [Compound 79]
Plant response rating, Velvetleaf [1, 17]: 80 | Plant response rating, Velvetleaf [1, 18]: 95 | Plant response rating, Velvetleaf [1, 19]: 70 | Plant response rating, Velvetleaf [1, 20]: 100 | Plant response rating, Crabgrass, Large [2, 17]: 0 | Plant response rating, Crabgrass, Large [2, 18]: 20 | Plant response rating, Crabgrass, Large [2, 19]: 0 | Plant response rating, Crabgrass, Large [2, 20]: 30 | Plant response rating, Panicum, Fall [3, 21]: 60 | Plant response rating, Panicum, Fall [3, 22]: 70 | Plant response rating, Panicum, Fall [3, 23]: 60 | Plant response rating, Panicum, Fall [3, 24]: 80 | Plant response rating, Panicum, Fall [3, 25]: 75 | Plant response rating, Panicum, Fall [3, 26]: 55 | Plant response rating, Panicum, Fall [3, 27]: 80 | Plant response rating, Panicum, Fall [3, 28]: 90 | Plant response rating, Barnyardgrass [4, 21]: 15 | Plant response rating, Barnyardgrass [4, 22]: 30 | Plant response rating, Barnyardgrass [4, 23]: 20 | Plant response rating, Barnyardgrass [4, 24]: 40 | Plant response rating, Barnyardgrass [4, 25]: 20 | Plant response rating, Barnyardgrass [4, 26]: 15 | Plant response rating, Barnyardgrass [4, 27]: 30 | Plant response rating, Barnyardgrass [4, 28]: 50 | Plant response rating, Field Bindweed [5, 21]: 95 | Plant response rating, Field Bindweed [5, 22]: 90 | Plant response rating, Field Bindweed [5, 23]: 95 | Plant response rating, Field Bindweed [5, 24]: 100 | Plant response rating, Field Bindweed [5, 25]: 95 | Plant response rating, Field Bindweed [5, 26]: 80 | Plant response rating, Field Bindweed [5, 27]: 60 | Plant response rating, Field Bindweed [5, 28]: 100 | Plant response rating, Beggarticks [6, 21]: 100 | Plant response rating, Beggarticks [6, 22]: 100 | Plant response rating, Beggarticks [6, 23]: 100 | Plant response rating, Beggarticks [6, 24]: 100 | Plant response rating, Beggarticks [6, 25]: 100 | Plant response rating, Beggarticks [6, 26]: 100 | Plant response rating, Beggarticks [6, 27]: 100 | Plant response rating, Beggarticks [6, 28]: 100 | Plant response rating, Nightshade [7, 17]: 100 | Plant response rating, Nightshade [7, 18]: 100 | Plant response rating, Nightshade [7, 19]: 80 | Plant response rating, Nightshade [7, 20]: 100 | Plant response rating, Johnsongrass [8, 19]: 70 | Plant response rating, Johnsongrass [8, 20]: 65 | Plant response rating, Goosegrass [9, 17]: 60 | Plant response rating, Goosegrass [9, 18]: 60 | Plant response rating, Goosegrass [9, 19]: 50 | Plant response rating, Goosegrass [9, 20]: 65 | Plant response rating, Nutsedge, Yellow [10, 17]: 60 | Plant response rating, Nutsedge, Yellow [10, 18]: 65 | Plant response rating, Nutsedge, Yellow [10, 19]: 50 | Plant response rating, Nutsedge, Yellow [10, 20]: 75 | Plant response rating, Surinam Grass [11, 17]: 50 | Plant response rating, Surinam Grass [11, 18]: 60 | Plant response rating, Surinam Grass [11, 19]: 40 | Plant response rating, Surinam Grass [11, 20]: 80 | Plant response rating, Morningglory [12, 17]: 85 | Plant response rating, Morningglory [12, 18]: 90 | Plant response rating, Morningglory [12, 19]: 60 | Plant response rating, Morningglory [12, 20]: 100 | Plant response rating, Kochia (kochia (Kochia scoparia); [21]): 80 | Plant response rating, Kochia (kochia (Kochia scoparia); [22]): 70 | Plant response rating, Kochia (kochia (Kochia scoparia); [23]): 90 | Plant response rating, Kochia (kochia (Kochia scoparia); [24]): 100 | Plant response rating, Kochia (kochia (Kochia scoparia); [25]): 98 | Plant response rating, Kochia (kochia (Kochia scoparia); [26]): 70 | Plant response rating, Kochia (kochia (Kochia scoparia); [27]): 50 | Plant response rating, Kochia (kochia (Kochia scoparia); [28]): 100 | Plant response rating, Ragweed [13, 21]: 98 | Plant response rating, Ragweed [13, 22]: 100 | Plant response rating, Ragweed [13, 23]: 95 | Plant response rating, Ragweed [13, 24]: 100 | Plant response rating, Ragweed [13, 25]: 100 | Plant response rating, Ragweed [13, 26]: 90 | Plant response rating, Ragweed [13, 27]: 100 | Plant response rating, Ragweed [13, 28]: 100 | Plant response rating, Sandbur [14, 21]: 30 | Plant response rating, Sandbur [14, 22]: 70 | Plant response rating, Sandbur [14, 23]: 50 | Plant response rating, Sandbur [14, 24]: 80 | Plant response rating, Sandbur [14, 25]: 65 | Plant response rating, Sandbur [14, 26]: 20 | Plant response rating, Sandbur [14, 27]: 60 | Plant response rating, Sandbur [14, 28]: 75 | Plant response rating, Arrowleaf Sida [15, 21]: 50 | Plant response rating, Arrowleaf Sida [15, 22]: 80 | Plant response rating, Arrowleaf Sida [15, 23]: 60 | Plant response rating, Arrowleaf Sida [15, 24]: 75 | Plant response rating, Arrowleaf Sida [15, 25]: 70 | Plant response rating, Arrowleaf Sida [15, 26]: 50 | Plant response rating, Arrowleaf Sida [15, 27]: 75 | Plant response rating, Arrowleaf Sida [15, 28]: 75 | Plant response rating, Foxtail, Giant [16, 17]: 70 | Plant response rating, Foxtail, Giant [16, 18]: 85 | Plant response rating, Foxtail, Giant [16, 19]: 60 | Plant response rating, Foxtail, Giant [16, 20]: 90

From patent US10597388B2, “Pyridazinone herbicides” (FMC CORPORATION, priority 2014, dated 2020)
